# Test results: ChEMBL document CHEMBL3301361, “Experimental in vitro DMPK and physicochemical data on a set of publicly disclosed compounds”
# Residues, ends and D or L forms follow the SMILES beside them.
# Columns and labels:
# [1] = in vitro; conditions: hepatocytes
# [2] = in vitro; conditions: human
# [3] = in vitro; conditions: human, plasma
# [4] = physchem; conditions: pH 7.4 buffer
# [5] = physchem; conditions: octan-1-ol/water
SMILES,hepatocyte CLint [1] [µL/min/1e6 cells],fraction unbound at 5 h ([3]; PPB),"logD ([5]; pH 7.4, LogD7.4)",also measured
C[C@H]1CN(Cc2cc(Cl)ccc2CCC(=O)O)CCN1C(=O)Cc1ccccc1,< 3,–,–,microsomal CLint ([2]; liver microsomes): < 3 µL/min/mg
CC(C(=O)O)c1ccc(C(=O)c2cccs2)cc1 (configuration not stated) [SUPROFEN],16,–,–,microsomal CLint ([2]; microsomes): < 3 µL/min/mg
Cc1cccc(C[C@@H](C(=O)O)N2CCC(CN3CCC(Oc4ccc(Cl)c(Cl)c4)CC3)CC2)c1,< 3,–,–,microsomal CLint ([2]; liver microsomes): < 3 µL/min/mg
O=C(NS(=O)(=O)c1ccccc1Cl)c1ccc[nH]1,3.31,–,–,microsomal CLint ([2]; liver microsomes): < 3 µL/min/mg
CCCCn1c(SCC(=O)Nc2cc(C)on2)nnc1-c1ccco1,> 150,–,–,microsomal CLint ([2]; microsomes): > 150 µL/min/mg
Cc1cc(F)ccc1OC1CCN(CC2CCN([C@@H](Cc3ccc(F)cc3)C(=O)O)CC2)CC1,< 3,–,–,microsomal CLint ([2]; liver microsomes): < 3 µL/min/mg
"CC(=O)N[C@@H](CCN)C(=O)N[C@H](C(=O)N[C@@H](CCN)C(=O)N[C@H]1CCNC(=O)[C@H]([C@@H](C)O)NC(=O)[C@H](CCN)NC(=O)[C@H](CCN)NC(=O)[C@H](CC(C)C)NC(=O)[C@@H](Cc2ccccc2)NC(=O)[C@H](CCN)NC1=O)[C@@H](C)O [DEACYL POLYMYXIN B] (HELM PEPTIDE1{[ac].[Dab].T.[Dab].[Dab].[Dab].[dF].L.[Dab].[Dab].T}$PEPTIDE1,PEPTIDE1,5:R3-11:R2$$$V2.0)",< 3,0.355,–,–
CC(=O)[C@@]1(O)CC[C@H]2[C@@H]3CCC4=CC(=O)CCC4=C3[C@@H](c3ccc(N(C)C)cc3)C[C@@]21C [ULIPRISTAL],> 150,–,–,fraction unbound at 5 h [3]: 0.0049
Cc1cn([C@H]2CCCN(S(=O)(=O)c3ccc(O)c(Oc4cc(F)cc(Cl)c4)c3)C2)c(=O)[nH]c1=O,74.1,0.0119,–,–
"CCCCCCCC(=O)N[C@@H](CCN)C(=O)N[C@@H](C)C(=O)N[C@@H](CCN)C(=O)N[C@H]1CCNC(=O)[C@H]([C@@H](C)O)NC(=O)[C@H](CCN)NC(=O)[C@H](CCN)NC(=O)[C@H](CC(C)C)NC(=O)[C@@H](Cc2ccccc2)NC(=O)[C@H](CCN)NC1=O (HELM PEPTIDE1{[CCCCCCCC(=O)[*:2]].[Dab].A.[Dab].[Dab].[Dab].[dF].L.[Dab].[Dab].T}$PEPTIDE1,PEPTIDE1,5:R3-11:R2$$$V2.0)",< 3,0.0768,–,–
"CCCCCCCC(=O)N[C@@H](C)C(=O)N[C@H](C(=O)N[C@@H](CCN)C(=O)N[C@H]1CCNC(=O)[C@H]([C@@H](C)O)NC(=O)[C@H](CCN)NC(=O)[C@H](CCN)NC(=O)[C@H](CC(C)C)NC(=O)[C@@H](Cc2ccccc2)NC(=O)[C@H](CCN)NC1=O)[C@@H](C)O (HELM PEPTIDE1{[CCCCCCCC(=O)[*:2]].A.T.[Dab].[Dab].[Dab].[dF].L.[Dab].[Dab].T}$PEPTIDE1,PEPTIDE1,5:R3-11:R2$$$V2.0)",< 3,0.107,–,–
COc1ccc2ncc(C#N)c(CCN3CCC(NCc4cc5c(cn4)OCS5)CC3)c2c1,72.4,0.089,2.55,–
C[C@@H]1CN(Cc2cc(Cl)ccc2OCC(=O)O)CCN1S(=O)(=O)c1ccccc1,7.48,0.0051,–,–
Cc1cc(Nc2nc(N[C@@H](C)c3ccc(F)cn3)c(C#N)cc2Cl)n[nH]1,6.17,0.0358,–,–
Cc1ccc(CO)cc1N(C)c1ccnc(Nc2cc(N3CCOCC3)cc(N3CCOCC3)c2)n1,31.6,0.0818,2.94,solubility thermodynamic [4]: 195 µM
Cc1ccc(S(=O)(=O)Nc2c(C(=O)N[C@@H](C)C(C)(C)C)c(C)nn2C2CCOC2)cc1 (some centres not stated),< 3,0.0736,0.78,–
COc1ccc2ncc(F)c(CCN3CCC(NCc4ccc5c(n4)NC(=O)CO5)CC3)c2n1,39.8,–,1.78,–
COc1ccc2ncc(=O)n(CCN3CCC(NCc4cc5c(cn4)OCCO5)CC3)c2c1,> 150,–,0.93,–
CC1=C(C(=O)O)N2C(=O)[C@@H](NC(=O)[C@H](N)c3ccc(O)cc3)[C@H]2SC1 [CEFADROXIL],< 3,–,-0.86,–
Cc1nc(C(=O)N2CCOC3(CCN(Cc4ccc(Cl)cc4)CC3)C2)cs1,47,–,2.17,–
Cn1sc(=O)c2cc(S(=O)(=O)NC3CC3)ccc21,> 150,–,1.3,–
C[C@@](C(=O)O[C@H]1C[N+]2(CCCc3ccncc3)CCC1CC2)(c1ccccc1)N1CCCCC1,82,–,–,fraction unbound at 5 h [3]: 0.483
Cc1cc(Oc2cc(S(=O)(=O)N3CCC[C@H](n4cc(C)c(=O)[nH]c4=O)C3)ccc2O)ccc1Cl,20.4,–,2.4,–
CN[C@@H](C)C(=O)N[C@H](C(=O)N[C@H]1C[C@@H]2CC[C@H]1N(CCc1ccccc1)C2)C1CCCCC1,19.9,–,1.64,–
COc1cc2c(ccc(=O)n2CCN2CCC(NCc3cc4c(cn3)OCCO4)CC2)cn1,35.5,0.166,0.68,–
COc1ccc2nc(C)cc(-n3cc(CN4CCN(C(C)=O)CC4)nn3)c2c1,5.13,–,1.3,–
"CCCCCCCC(=O)N[C@@H](CCN)C(=O)N[C@H](C(=O)N[C@@H](CCN)C(=O)N[C@H]1CCNC(=O)[C@H](C)NC(=O)[C@H](CCN)NC(=O)[C@H](CCN)NC(=O)[C@H](CC(C)C)NC(=O)[C@@H](Cc2ccccc2)NC(=O)[C@H](CCN)NC1=O)[C@@H](C)O (HELM PEPTIDE1{[CCCCCCCC(=O)[*:2]].[Dab].T.[Dab].[Dab].[Dab].[dF].L.[Dab].[Dab].A}$PEPTIDE1,PEPTIDE1,5:R3-11:R2$$$V2.0)",< 3,0.0581,–,–

# Second part, led by results:
hepatocyte CLint [1] [µL/min/1e6 cells],fraction unbound at 5 h ([3]; PPB),"logD ([5]; pH 7.4, LogD7.4)",SMILES,also measured
20,–,–,Cc1ccc(NC(=O)c2cccc(N3CCOCC3)c2)cc1NC(=O)c1ccc(OCc2cscn2)cc1,microsomal CLint ([2]; microsomes): 23 µL/min/mg
46,0.0268,–,O=c1cc(-c2cccnc2)[nH]c2cc(C(O)c3ccccc3)ccc12 (configuration not stated),solubility thermodynamic [4]: 288 µM
70.8,0.0209,3.16,C[C@@]1(C(=O)Nc2ccc(F)nc2)CCCN1c1nc(Nc2cc(C3CC3)n[nH]2)c2cccn2n1 [BMS-754807],–
38,0.0139,2.3,Cc1cn([C@H]2CCCN(S(=O)(=O)c3ccc(O)c(Oc4cccc(Br)c4)c3)C2)c(=O)[nH]c1=O,–
12.3,0.0119,2.48,CC(=O)Nc1ccc2c(c1)c(-c1cc(NC3CC3)n3ncc(C#N)c3n1)cn2CCCO,–
51.3,–,–,Cc1cc(OCC(=O)NCc2ccccc2)c2cc(Br)ccc2n1,microsomal CLint ([2]; microsomes): 126 µL/min/mg
20.4,–,–,N#Cc1ccc(C(=O)Nc2ccc(-n3ccnc3)nc2)cc1,microsomal CLint ([2]; microsomes): 6.31 µL/min/mg
> 150,–,–,CCn1c(SCC(=O)Nc2cccc(C)c2)nnc1-c1ccccc1,microsomal CLint ([2]; microsomes): > 150 µL/min/mg
> 150,–,–,Cc1cc(OCC(=O)Nc2ccccc2)c2cc(Br)ccc2n1,microsomal CLint ([2]; microsomes): 123 µL/min/mg
50,0.0051,3.46,O=c1cc(-c2cccnc2)[nH]c2cc(Cc3ccccc3)ccc12,solubility thermodynamic [4]: 1.7 µM
91.2,–,–,Cc1cccc(NC(=O)Nc2cccc3ccccc23)c1,microsomal CLint ([2]; liver microsomes): 70.8 µL/min/mg
< 3,0.0099,1.12,Cc1cn([C@H]2CCCN([C@@H](CC(C)(C)C)c3ccc(C(=O)O)c(Oc4cccc(Br)c4)c3)C2)c(=O)[nH]c1=O,–
17,0.253,1.82,CN[C@@H](C)C(=O)N[C@H]1CN(C(=O)CC(C)C)CC[C@H]2CC[C@@H](C(=O)NC(c3ccccc3)c3ccccc3)N2C1=O [XEVINAPANT],–
> 150,–,–,COc1cccc(CNc2nc(NC(C)C)nc3ccsc23)c1OC,fraction unbound at 5 h [3]: 0.0027
5.25,–,–,CC(NC(=O)c1cc(O)nc2ccccc12)c1ccccc1 (configuration not stated),logD ([5]; pH 7.4): 2.2; fraction unbound at 5 h [3]: 0.36
12.6,0.0209,3.8,CO[C@H]1CC[C@]2(CC1)Cc1ccc(-c3cc(Cl)cc(C#N)c3)cc1C21N=C(C)C(N)=N1 (some centres not stated),–
5.13,0.103,2.37,N#CCNC(=O)c1ccc(-c2ccnc(Nc3ccc(N4CCOCC4)cc3)n2)cc1 [MOMELOTINIB],–
21.9,0.124,2.24,CC(=O)Nc1ccc2ccn(-c3cc(NC4COC4)n4ncc(C#N)c4n3)c2c1,–
89.1,0.0139,2.12,Cc1cn([C@H]2CCCN(S(=O)(=O)c3ccc(O)c(Oc4ccc(Cl)cc4)c3)C2)c(=O)[nH]c1=O,–
36.3,0.0119,1.68,CCC(CC)C[C@H](c1ccc(C(=O)O)c(Oc2cccc(Cl)c2)c1)N1CCC[C@H](n2cc(C)c(=O)[nH]c2=O)C1,–
52.5,0.0099,1.99,CCCC(C)(C)C[C@H](c1ccc(C(=O)O)c(Oc2cccc(Cl)c2)c1)N1CCC[C@H](n2cc(C)c(=O)[nH]c2=O)C1,–
> 150,–,3.7,C=CC(=O)Nc1ccc2ncnc(Nc3cccc(C)c3)c2c1,solubility thermodynamic [4]: 16.6 µM
10.2,–,3.24,Cc1ccc(-c2nc3ccccc3[nH]2)cc1NC(=O)c1ccc(OCc2ccccn2)cc1,–
29.5,–,0.8,O=C(Nc1cccc(-c2nnn[nH]2)c1)c1cc(O)cc(C(F)(F)F)c1,–
< 3,–,2.4,C[C@@](CCc1ccc(-c2ccc(Cl)cc2)cc1)(C(=O)NO)S(C)(=O)=O,–
19.1,0.107,-0.25,Cc1cn([C@H]2CCCN([C@H](CC3CCOCC3)c3ccc(C(=O)O)c(Oc4cccc(Cl)c4)c3)C2)c(=O)[nH]c1=O,–
148,–,–,NC1(c2ccc(-c3nc4ccccc4cc3-c3ccccc3)cc2)CCC1,solubility thermodynamic [4]: 288 µM
69.2,–,1.97,CCC(C)(CC)C[C@H](c1ccc(C(=O)O)c(Oc2cccc(Br)c2)c1)N1CCC[C@H](n2cc(C)c(=O)[nH]c2=O)C1,–
